Like-named read-outs stand apart in the source and are kept apart here.
Tests used:
Assay in all cases: KinomeScan kinase panel, single concentration 10 µM
Format in all cases: binding
KinomeScan kinase panel [1] = molecular target: T1, KinomeScan kinase panel (Homo sapiens, UniProt P06241); details: FYN, 10 µM; read-out: score (%)
T1 construct: purchased DiscoveRx (KinomeScan)

KinomeScan kinase panel [2] = molecular target: T2, KinomeScan kinase panel (Homo sapiens, UniProt P51813); details: BMX, 10 µM; read-out: score (%)
T2 construct: purchased DiscoveRx (KinomeScan)
T2 sequence (P51813 1-675): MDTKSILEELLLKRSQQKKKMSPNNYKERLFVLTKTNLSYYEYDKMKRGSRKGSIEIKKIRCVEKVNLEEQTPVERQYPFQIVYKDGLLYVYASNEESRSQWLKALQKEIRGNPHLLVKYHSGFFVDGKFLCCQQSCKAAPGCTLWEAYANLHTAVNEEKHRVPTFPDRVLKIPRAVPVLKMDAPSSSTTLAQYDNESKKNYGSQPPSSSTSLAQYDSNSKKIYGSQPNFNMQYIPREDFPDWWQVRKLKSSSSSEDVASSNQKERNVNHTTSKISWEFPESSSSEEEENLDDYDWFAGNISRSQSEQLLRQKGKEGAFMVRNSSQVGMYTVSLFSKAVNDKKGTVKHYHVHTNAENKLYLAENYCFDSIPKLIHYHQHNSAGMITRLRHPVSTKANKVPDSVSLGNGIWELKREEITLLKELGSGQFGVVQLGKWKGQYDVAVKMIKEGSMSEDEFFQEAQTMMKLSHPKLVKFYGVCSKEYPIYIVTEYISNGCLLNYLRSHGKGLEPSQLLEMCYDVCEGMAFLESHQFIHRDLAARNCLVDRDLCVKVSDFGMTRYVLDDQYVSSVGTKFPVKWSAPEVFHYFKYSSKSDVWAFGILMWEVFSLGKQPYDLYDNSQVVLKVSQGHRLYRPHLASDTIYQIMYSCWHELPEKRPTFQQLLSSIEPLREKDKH

KinomeScan kinase panel [3] = molecular target: T3, KinomeScan kinase panel (Homo sapiens, UniProt P08631); details: HCK, 10 µM; read-out: score (%)
T3 construct: purchased DiscoveRx (KinomeScan)
T3 sequence (P08631 whole entry): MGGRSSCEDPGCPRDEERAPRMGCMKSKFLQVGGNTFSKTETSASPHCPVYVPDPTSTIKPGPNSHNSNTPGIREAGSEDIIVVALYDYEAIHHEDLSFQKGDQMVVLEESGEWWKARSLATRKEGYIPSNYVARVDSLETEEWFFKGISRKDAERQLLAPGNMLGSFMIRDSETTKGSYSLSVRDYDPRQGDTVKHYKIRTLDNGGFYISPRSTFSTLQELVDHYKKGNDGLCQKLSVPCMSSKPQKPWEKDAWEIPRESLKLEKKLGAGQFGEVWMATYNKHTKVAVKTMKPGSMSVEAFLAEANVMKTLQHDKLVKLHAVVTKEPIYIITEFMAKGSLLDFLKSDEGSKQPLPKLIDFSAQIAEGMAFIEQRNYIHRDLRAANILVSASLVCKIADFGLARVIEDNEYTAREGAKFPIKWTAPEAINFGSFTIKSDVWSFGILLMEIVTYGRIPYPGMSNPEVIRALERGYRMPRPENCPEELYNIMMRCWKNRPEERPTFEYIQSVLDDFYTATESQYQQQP

KinomeScan kinase panel [4] = molecular target: T4, KinomeScan kinase panel (Homo sapiens, UniProt P12931); details: 10 µM, read-out: score (%)
T4 construct: purchased DiscoveRx (KinomeScan)
T4 sequence (P12931 whole entry): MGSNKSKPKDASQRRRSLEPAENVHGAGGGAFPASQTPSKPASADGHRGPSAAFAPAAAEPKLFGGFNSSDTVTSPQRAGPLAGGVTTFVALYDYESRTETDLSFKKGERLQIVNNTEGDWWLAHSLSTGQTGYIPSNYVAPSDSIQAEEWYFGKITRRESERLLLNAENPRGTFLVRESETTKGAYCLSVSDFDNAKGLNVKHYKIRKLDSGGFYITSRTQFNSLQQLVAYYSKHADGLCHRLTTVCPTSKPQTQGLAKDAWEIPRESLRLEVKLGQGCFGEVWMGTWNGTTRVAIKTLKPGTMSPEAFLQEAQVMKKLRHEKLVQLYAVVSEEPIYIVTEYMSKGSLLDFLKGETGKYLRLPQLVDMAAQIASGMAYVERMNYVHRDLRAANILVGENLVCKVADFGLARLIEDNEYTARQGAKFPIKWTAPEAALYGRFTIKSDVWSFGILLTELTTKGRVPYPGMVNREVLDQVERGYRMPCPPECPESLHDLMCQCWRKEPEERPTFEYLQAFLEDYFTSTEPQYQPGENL

KinomeScan kinase panel [5] = molecular target: T5, KinomeScan kinase panel (Homo sapiens, UniProt Q13546); details: read-out: score (%)
T5 construct: purchased DiscoveRx (KinomeScan)
T5 sequence (Q13546 1-671): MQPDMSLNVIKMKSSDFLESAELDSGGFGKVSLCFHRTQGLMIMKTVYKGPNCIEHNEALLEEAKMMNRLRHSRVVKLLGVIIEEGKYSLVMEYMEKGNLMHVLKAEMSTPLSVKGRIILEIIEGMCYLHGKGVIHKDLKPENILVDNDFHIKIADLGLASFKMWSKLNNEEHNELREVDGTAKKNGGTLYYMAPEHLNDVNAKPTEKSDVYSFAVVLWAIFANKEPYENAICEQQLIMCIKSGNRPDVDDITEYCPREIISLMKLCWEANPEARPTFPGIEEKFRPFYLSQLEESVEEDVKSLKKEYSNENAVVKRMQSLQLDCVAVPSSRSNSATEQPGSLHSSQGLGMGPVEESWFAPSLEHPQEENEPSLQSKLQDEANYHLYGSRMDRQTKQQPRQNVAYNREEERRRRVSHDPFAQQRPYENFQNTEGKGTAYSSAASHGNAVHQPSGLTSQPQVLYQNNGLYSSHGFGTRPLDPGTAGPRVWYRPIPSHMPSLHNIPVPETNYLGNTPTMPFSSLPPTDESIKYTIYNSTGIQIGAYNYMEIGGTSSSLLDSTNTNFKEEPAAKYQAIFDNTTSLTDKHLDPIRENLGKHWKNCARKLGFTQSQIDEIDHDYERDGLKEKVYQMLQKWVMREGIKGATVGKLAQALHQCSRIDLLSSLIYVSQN

KinomeScan kinase panel [6] = molecular target: T6, KinomeScan kinase panel (Homo sapiens, UniProt Q9NRP7); details: read-out: score (%)
T6 construct: purchased DiscoveRx (KinomeScan)
T6 sequence (Q9NRP7 1-1315): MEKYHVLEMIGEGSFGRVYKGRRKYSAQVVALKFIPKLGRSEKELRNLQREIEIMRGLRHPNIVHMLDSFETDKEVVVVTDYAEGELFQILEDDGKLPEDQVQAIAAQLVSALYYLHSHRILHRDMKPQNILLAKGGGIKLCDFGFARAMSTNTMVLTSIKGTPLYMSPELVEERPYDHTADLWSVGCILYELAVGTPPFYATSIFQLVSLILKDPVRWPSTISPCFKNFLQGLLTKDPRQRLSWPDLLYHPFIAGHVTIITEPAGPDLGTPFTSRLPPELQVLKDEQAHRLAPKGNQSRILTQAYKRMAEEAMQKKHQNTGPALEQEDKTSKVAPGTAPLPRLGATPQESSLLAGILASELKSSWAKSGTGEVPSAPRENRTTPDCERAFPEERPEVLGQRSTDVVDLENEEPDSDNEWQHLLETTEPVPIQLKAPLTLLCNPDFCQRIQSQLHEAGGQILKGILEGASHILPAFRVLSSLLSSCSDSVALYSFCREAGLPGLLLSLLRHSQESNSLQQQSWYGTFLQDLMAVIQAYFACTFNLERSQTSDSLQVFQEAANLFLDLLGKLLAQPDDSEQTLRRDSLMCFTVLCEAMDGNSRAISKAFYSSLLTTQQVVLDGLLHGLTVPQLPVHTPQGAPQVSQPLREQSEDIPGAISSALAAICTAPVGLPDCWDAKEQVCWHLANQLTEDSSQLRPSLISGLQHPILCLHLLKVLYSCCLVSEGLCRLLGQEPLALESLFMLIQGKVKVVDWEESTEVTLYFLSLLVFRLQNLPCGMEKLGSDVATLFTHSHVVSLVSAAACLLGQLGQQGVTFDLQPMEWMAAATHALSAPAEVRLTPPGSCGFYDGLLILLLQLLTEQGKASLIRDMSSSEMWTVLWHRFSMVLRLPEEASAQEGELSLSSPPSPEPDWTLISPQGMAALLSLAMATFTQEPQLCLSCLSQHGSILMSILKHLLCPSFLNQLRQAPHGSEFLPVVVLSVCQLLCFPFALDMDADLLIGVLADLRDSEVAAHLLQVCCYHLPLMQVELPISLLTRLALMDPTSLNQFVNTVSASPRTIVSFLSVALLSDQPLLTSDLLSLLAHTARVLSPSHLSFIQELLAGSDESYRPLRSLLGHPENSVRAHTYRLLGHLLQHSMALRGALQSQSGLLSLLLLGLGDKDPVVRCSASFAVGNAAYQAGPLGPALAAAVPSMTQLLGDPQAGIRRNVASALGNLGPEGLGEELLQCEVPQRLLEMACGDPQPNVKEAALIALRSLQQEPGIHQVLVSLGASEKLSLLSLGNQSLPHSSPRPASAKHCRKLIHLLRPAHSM

KinomeScan kinase panel [7] = molecular target: T7, KinomeScan kinase panel (Homo sapiens, UniProt P29597)
T7 construct: purchased DiscoveRx (KinomeScan)
T7 sequence (P29597 whole entry): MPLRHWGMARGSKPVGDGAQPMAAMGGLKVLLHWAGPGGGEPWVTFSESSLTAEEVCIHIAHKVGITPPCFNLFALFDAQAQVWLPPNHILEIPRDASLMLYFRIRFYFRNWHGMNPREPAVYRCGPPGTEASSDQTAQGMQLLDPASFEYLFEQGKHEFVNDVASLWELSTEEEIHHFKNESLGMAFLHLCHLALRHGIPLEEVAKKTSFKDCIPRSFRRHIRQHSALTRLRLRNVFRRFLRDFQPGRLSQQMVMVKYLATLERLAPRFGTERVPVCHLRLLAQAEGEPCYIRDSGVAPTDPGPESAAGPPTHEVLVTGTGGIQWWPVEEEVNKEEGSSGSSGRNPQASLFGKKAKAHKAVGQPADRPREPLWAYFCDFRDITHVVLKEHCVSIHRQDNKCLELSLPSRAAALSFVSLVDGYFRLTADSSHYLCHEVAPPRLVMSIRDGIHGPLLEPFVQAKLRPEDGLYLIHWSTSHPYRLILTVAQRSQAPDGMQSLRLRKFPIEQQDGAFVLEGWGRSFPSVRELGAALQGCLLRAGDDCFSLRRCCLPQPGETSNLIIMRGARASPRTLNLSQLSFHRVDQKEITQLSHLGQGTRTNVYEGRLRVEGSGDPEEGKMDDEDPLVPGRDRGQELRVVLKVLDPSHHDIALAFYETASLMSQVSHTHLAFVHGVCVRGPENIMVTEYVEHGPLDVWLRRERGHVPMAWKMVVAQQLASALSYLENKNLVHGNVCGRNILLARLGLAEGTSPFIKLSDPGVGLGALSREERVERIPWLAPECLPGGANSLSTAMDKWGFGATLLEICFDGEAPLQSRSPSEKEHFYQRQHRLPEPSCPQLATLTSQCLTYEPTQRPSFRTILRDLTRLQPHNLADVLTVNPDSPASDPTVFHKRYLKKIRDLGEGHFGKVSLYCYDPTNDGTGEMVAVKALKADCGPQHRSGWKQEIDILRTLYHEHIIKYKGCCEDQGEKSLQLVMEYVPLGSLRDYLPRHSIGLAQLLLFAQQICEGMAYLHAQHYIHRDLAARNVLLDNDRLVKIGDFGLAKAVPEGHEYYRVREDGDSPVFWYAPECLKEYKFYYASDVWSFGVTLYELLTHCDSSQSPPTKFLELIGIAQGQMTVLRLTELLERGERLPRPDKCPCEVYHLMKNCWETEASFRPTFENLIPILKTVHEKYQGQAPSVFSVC

[8] = kinase TYK2(JH1domain-catalytic), 10 µM

T1 sequence (P06241 whole entry): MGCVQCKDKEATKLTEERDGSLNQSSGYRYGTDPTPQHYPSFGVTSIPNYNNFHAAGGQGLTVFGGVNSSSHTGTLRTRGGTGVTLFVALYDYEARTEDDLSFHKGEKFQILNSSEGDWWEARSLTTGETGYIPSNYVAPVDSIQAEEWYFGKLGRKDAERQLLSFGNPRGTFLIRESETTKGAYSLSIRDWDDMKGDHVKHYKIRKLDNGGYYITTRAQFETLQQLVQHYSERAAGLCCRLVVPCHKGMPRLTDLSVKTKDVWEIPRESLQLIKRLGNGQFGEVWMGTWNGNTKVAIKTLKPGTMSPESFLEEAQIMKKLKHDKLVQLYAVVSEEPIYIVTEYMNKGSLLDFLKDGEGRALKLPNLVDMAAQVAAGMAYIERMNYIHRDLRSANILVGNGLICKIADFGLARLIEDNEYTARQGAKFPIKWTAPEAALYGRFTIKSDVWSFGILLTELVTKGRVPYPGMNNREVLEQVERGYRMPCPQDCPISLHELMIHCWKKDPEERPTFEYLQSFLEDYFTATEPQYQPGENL

| remaining binding at 10 µM (KinomeScan kinase panel [4]; SRC) [%] | remaining binding at 10 µM (KinomeScan kinase panel [6]; STK36, 10 µM) [%] | score (%) (KinomeScan kinase panel [7]; kinase TYK2(Kin.Dom.2), 10 µM) | Compound | remaining binding at 10 µM (KinomeScan kinase panel [1]) [%] | remaining binding at 10 µM (KinomeScan kinase panel [2]) [%] | remaining binding at 10 µM (KinomeScan kinase panel [3]) [%] | remaining binding at 10 µM (KinomeScan kinase panel [4]; kinase SRC) [%] | remaining binding at 10 µM (KinomeScan kinase panel [5]; RIPK1, 10 µM) [%] | remaining binding at 10 µM (KinomeScan kinase panel [6]; kinase STK36, 10 µM) [%] | score (%) (KinomeScan kinase panel [7]) | score (%) (KinomeScan kinase panel [7]; [8]) | score (%) (KinomeScan kinase panel [7]; kinase TYK2(Kin.Dom.1), 10 µM) | remaining binding at 10 µM (KinomeScan kinase panel [5]; kinase RIPK1, 10 µM) [%] | score (%) (KinomeScan kinase panel [7]; kinase TYK2(JH2domain-pseudokinase), 10 µM) |
| --- | --- | --- | --- | --- | --- | --- | --- | --- | --- | --- | --- | --- | --- | --- |
|  |  |  | CCN1CCN(Cc2ccc(NC(=O)c3ccc(C)c(NC(=O)c4cncc(-c5cccs5)c4)c3)cc2C(F)(F)F)CC1 [ALW-II-41-27] | 0.25 | 11 | 0.2 | 0.1 | 0.45 | 0.2 | nb (Hits values higher than 30% were considered negative (no binding: nb)) | 9.8 |  |  |  |
| 0.25 | 0.05 | 7 | CCN1CCN(Cc2ccc(NC(=O)c3ccc(C)c(/C=C/c4cnc5[nH]ccc5c4Cl)c3)cc2C(F)(F)F)CC1 [HG-6-63-01, (E)-3-(2-(4-chloro-1H-pyrrolo[2,3-b]pyridin-5-yl)vinyl)-N-(4-((4-ethylpiperazin-1-yl)methyl)-3-(trifluoromethyl)phenyl)-4-methylbenzamide] | 2.2 | 1.6 | 0.3 |  | 0.05 |  |  |  | nb (Hits values higher than 30% were considered negative (no binding: nb)) |  |  |
|  |  |  | CCN1CCN(Cc2ccc(NC(=O)c3ccc(C)c(C#Cc4cccnc4)c3)cc2C(F)(F)F)CC1 [XMD15-44] | 0.35 | 2.7 | 0.05 | 0 |  | 0.4 |  | 4.2 |  | 0.05 | 99 |

Source: article PMC4457528, “Identification of Novel Small Molecule Inhibitors of Oncogenic RET Kinase” (PLoS ONE, 2015)
